Source: patent US20220160703A1, “TUMOR-SELECTIVE COMBINATION THERAPY” (The Board of Regents of The University of Texas System, priority 2019, published 2022)

What was measured:
B16 tumors = assay: B16 (NQO1 null or NQO1 overexpressing) tumor model; format: in vivo, mice
tumor specific T cells = assay: IFNγ ELISPOT / CBA tumor-specific T cell response; format: in vivo, mice
Method: FIGS. 3A-E. Batf3-dependent dendritic cell-mediated T cell cross-priming is required for the antitumor effect of β-lap. […] IFNγ producing cells were determined by ELISPOT assay. […] (FIG. 3D) MC38 cells were subcutaneously transplanted into C57BL/6 WT (n=5/group) and Batf3^-/- mice (n=5/group for Batf3^-/- vehicle; n=6/group for Batf3^-/- β-lap), respectively. Tumor bearing mice were treated with β-lap (0.3 mg, i.t.) every other day for four times. Tumor growth was monitored twice a week. (FIG. 3E) MC38-OVA bearing mice (n=3/group) were treated with β-lap (0.3 mg, i.t.) for one time, and 4 days later, CD11c^+ dendritic cells were purified from the tumor drain lymph node, and cocultured with CD8 T cells isolated from the spleen of OT-1 transgenic mice. The activity of cross-priming of T cells was determined by the level of cell-secreted IFNγ via Cytometric Bead Array (CBA) mouse IFNγ assay. Data are shown as mean±SEM from three independent experiments. **P<0.01, ***P<0.001, ****P<0.0001 determined by unpaired student t-test (FIGS. 3A, 3B and 3E) or two-way ANOVA (FIGS. 3C and 3D). FIGS. 4A-F. Type I IFNs and TLR4/MyD88/signaling is required for the antitumor effect of β-lap and tumor specific CTLs. (FIG. 4A) MC38 tumor bearing C57BL/6 mice (n=5/group) were treated with β-lap (0.3 mg, i.t.) every other day for four times. Anti-IFNAR blocking antibodies (150 μg, i.t.) were administrated every four days for three times during the treatment. (FIG. 4B) The MC38 tumor bearing WT (n=5/group) and […]=4/group) C57BL/6 mice were treated with β-lap (0.3 mg, i.t.) every other day for four times. (FIG. 4C) MC38 tumor bearing WT (n=5/group) and Myd88^-/- (n=3/group) C57BL/6 mice were treated with β-lap (0.3 mg, i.t.) every other day for four times. (FIG. 4D) MC38 tumor bearing WT (n=5/group) and Tlr4^-/- (n=4/group) C57BL/6 mice were treated with β-lap (0.3 mg, i.t.) every other day for four times). (FIG. 4E) MC38 tumor bearing C57BL/6 mice (n=5/group) were treated with β-lap (0.3 mg, i.t.) every other day for four times. Anti-HMGB1 neutralized antibodies (200 μg, i.p) were administrated every three days for three times during the treatment. Tumor growth was monitored twice a week. (FIG. 4F) MC38 tumor bearing WT (n=4/group) or Tlr4^-/- (n=4/group) or MyD88-/- (n=6/group) C57BL/6 mice were treated with β-lap (0.3 mg, i.t.) every other day for four times. Anti-HMGB1 neutralized antibodies (200 μg, i.p) were administrated every three days for three times during the treatment. 12 days after the initial treatment, lymphocytes from the TdLN were isolated and stimulated with MC38 tumor cells irradiated with 60 Gy. IFNγ producing cells were determined by ELISPOTs assay. Data are shown as mean±SEM from two to three independent experiments. *P<0.05, **P<0.01, ***P<0.001, ****P<0.0001 determined by two-way ANOVA. […] (FIG. 6A) Treatment schema for local β-lap treatment based combinative therapy in FIG. 6B and FIG. 6C. (FIGS. 6B-C) MC38 tumor cells were s.c. inoculated into the flank of C57BL/6 mice (n=5/group). […] Tumor growth was monitored twice a week, and numbers of tumor free mice after treatment were shown. […] Tumor growth was monitored twice a week, and numbers of tumor free mice after treatment were shown. […] 12 days after first treatment, tumor infiltrating CD45^+ cells and lymphocytes were analyzed by flow cytometry (FIG. 6G), and OT-1 antigen specific T cells in the spleen were determined by IFNγ ELISPOT assay (FIG. 6H). […]

CC1(C)CCC2=C(O1)c1ccccc1C(=O)C2=O [β-lap, β-lapachone]
tumor response (B16 tumors; NQO1null parental B16, β-lap 0.3 mg i.t. four times): didn't response
tumor response (B16 tumors; NQO1 overexpressing B16 clone #1 and #4, β-lap 0.3 mg i.t. four times): dramatic tumor suppression
TGI (B16 tumors; NQO1 overexpressing B16 tumors (about 100 mm^3), β-lap 0.3 mg i.t. four times, anti-PD-L1 150 μg i.p. three times): 68.67%
IFNγ-producing T cells (tumor specific T cells; MC38, splenocytes 10 days after first β-lap, irradiated tumor cells): dramatically increased
OT1 antigen specific T cells in tumor tissues and spleen (tumor specific T cells; MC38-OVA, 12 days after initial treatment): neither β-lap or anti-PD-L1 monotherapy increased
numbers of OTI specific T cells in spleen (tumor specific T cells; MC38-OVA, OTI peptide stimulation): much higher
IFNγ production by OTI T cells primed by TdLN DCs (tumor specific T cells; MC38-OVA, β-lap 0.3 mg i.t. once, DCs 4 days later, CBA): more IFNγ production
tumor-reactive T cells in TdLN (tumor specific T cells; WT mice, MC38, 12 days after initial treatment): increased the number of tumor-reactive T cells
